We go through one compound from PMC3165048 (Chemistry & biology, 2010).

Values after ≈ are worked out from the molar mass of the structure shown.

One test concerns the target MtMetAP1a (Mycobacterium tuberculosis, UniProt P9WK20). Briefly: Coupled methionine-proline aminopeptidase enzymatic assay. The format is biochemical. As to conditions: […] CoCl2, 600 µM Met-Pro-pNA, 20 min pre-incubation.
Test [1] concerns Aged-cultured (non-replicating) M. tuberculosis. Kind of test: microbe, parasite or virus in culture. As to conditions: Mycobacterium tuberculosis, read-out: M.I.C. Aged-cultured M. tuberculosis. The test is classed as cell-based, M. tuberculosis H37Ra.
Test [2] relates to Replicating M. tuberculosis. Briefly: Minimum inhibitory concentration in replicating M. tuberculosis culture. The test is classed as cell-based, M. tuberculosis H37Rv.
The target in the next test is MtMetAP1c (Mycobacterium tuberculosis, UniProt P9WK18). Kind of test: biochemical. The note with it: […] CoCl2, 600 µM Met-Pro-pNA, 20 min pre-incubation.
Chain of MtMetAP1c (P9WK18 whole entry): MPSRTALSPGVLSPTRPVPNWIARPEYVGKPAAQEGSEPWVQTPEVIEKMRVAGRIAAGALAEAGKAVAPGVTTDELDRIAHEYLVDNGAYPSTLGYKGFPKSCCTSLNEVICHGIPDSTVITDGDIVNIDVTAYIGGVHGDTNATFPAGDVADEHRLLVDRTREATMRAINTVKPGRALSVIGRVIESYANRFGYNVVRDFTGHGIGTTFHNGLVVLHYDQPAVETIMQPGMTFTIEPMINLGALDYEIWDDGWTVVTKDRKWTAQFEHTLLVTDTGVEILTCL

Chain of MtMetAP1a (P9WK20 whole entry): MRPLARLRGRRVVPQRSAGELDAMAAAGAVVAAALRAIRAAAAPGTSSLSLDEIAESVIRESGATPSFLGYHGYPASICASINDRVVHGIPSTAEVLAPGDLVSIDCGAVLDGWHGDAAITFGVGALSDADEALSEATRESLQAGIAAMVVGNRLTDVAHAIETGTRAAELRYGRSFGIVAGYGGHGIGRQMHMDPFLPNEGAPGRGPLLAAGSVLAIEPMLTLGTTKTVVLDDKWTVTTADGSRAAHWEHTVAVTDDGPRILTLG

As for `O=C1C(Cl)=C(Cl)C(=O)c2ccccc21` [Compound 4, 2,3-dichloro-1,4-naphthoquinone], the figures for the IC50 against MtMetAP1a and against MtMetAP1c were 3.3 ± 0.3 µM and 6.6 ± 1.2 µM, respectively. Moreover, in test [1], the MIC is 5.7 to 11.4 µg/mL (≈ 25.1 to 50.2 µM). In addition, the “M.I.C. Replicating M. tuberculosis” value in test [2] was determined as 10 µg/mL.

By IC50 is commonly meant the concentration that gives 50% inhibition.
